Assay results: patent US20260053764A1, “COMPOSITION FOR PREVENTING DETERIORATION IN COGNITIVE FUNCTION AND/OR IMPROVING COGNITIVE FUNCTION” (PHARMA FOODS INTERNATIONAL CO., LTD., priority 2020, published 2026)

System: cognitive function of a human
Assay: Cognitrax test in placebo-controlled randomized double-blind clinical tests A and B
Format: in vivo
Design: Reaction time / Complex attention / Cognitive flexibility / Social acuity / Non-verbal reasoning / Working memory / Continuous attention / Simple attention: scale not given here
Description: A Cognitrax test is known as such an examination that can assess a plurality of domains or items of cognitive function. The Cognitrax test is a cognitive function examination service practiced on the Web based on the cognitive function examination technique developed by CNS Vital Signs in the United States. In the Cognitrax test, among a total of 10 types of tests, which are verbal memory test, visual memory test, finger tapping test, symbol digit coding test (SDC test), Stroop test, shifting attention test, continuous performance test, perception of emotion test, reasoning test and four part continuous performance test, a test is carried out in accordance with the purpose of the examination to digitize the examination result regarding each of a total of 16 types of items at most, which are neurocognition index, composite memory, verbal memory, visual memory, psychomotor speed, reaction time, complex attention, cognitive flexibility, processing speed, executive function, social acuity, non-verbal reasoning, working memory, continuous attention, simple attention and motor speed.
Two types of placebo-controlled randomized double-blind two-group parallel comparison tests were carried out as clinical tests. […] Specifically, capsules comprising 100 mg of dextrin per capsule were used as the placebo food.
The screening examination was carried out to select 60 subjects for each test (a total of 120 subjects). MMSE (Mini Mental State Examination) is an examination for assessing the degree of progression of dementia or the like based on the score thereof with 30 as the perfect score, wherein dementia is suspected with a score of 23 or lower.
• (1) Japanese male and female at the age of 40 or higher • (2) People aware of reduction in cognitive function • (3) People who can continuously ingest the test food every day for 12 weeks • (4) People with an MMSE score of 24 or higher • (5) People who have received sufficient explanation of the purpose/content of the clinical test, have the ability to give consent, voluntarily applied to participate in the clinical test with sufficient understanding, and gave consent to the participation in the clinical test on paper
The total of 120 subjects were randomly divided into test A active group, test A placebo group, test B active group and test B placebo group with 30 subjects in each group. Each subject of the test A active group ingested two capsules of the active food, each subject of the test A placebo group ingested two capsules of the placebo food, each subject of the test B active group ingested one capsule of the active food and each subject of the test B placebo group ingested one capsule of the placebo food.
Each subject followed the schedule shown in the table below and ingested one or two of the assigned capsules together with water for 12 weeks from two weeks after the initial screening examination. All subjects had no particular instruction during the ingestion period and freely took their meals.
As shown with ● in the test schedule in Table 1, Cognitrax was carried out a total of five times, which are upon screening, before starting test food sample ingestion, after four weeks of ingestion, after eight weeks of ingestion and after twelve weeks of ingestion, and the RBANS neuropsychological test was carried out a total of two times, which are before staring test food ingestion and after twelve weeks of ingestion.

[1] = test A 200 mg, before ingestion
[2] = test A 200 mg, before ingestion, mean ± SD
[3] = test A, after eight weeks of ingestion
[4] = test B 100 mg, before ingestion
[5] = test B 100 mg, before ingestion, mean ± SD

## NCCCC(=O)O [GABA, γ-aminobutyric acid]
Test A 200 mg, 4 w
  Cognition flexibility: difference between active food and placebo food groups: 2.1
  Complex attention: difference between active food and placebo food groups: 0.6
  Composite memory: difference between active food and placebo food groups: −0.9
  Continuous attention: difference between active food and placebo food groups: 1.1
  Executive function: difference between active food and placebo food groups: 2.4
  Motor speed: difference between active food and placebo food groups: 6.0
  Non-verbal reasoning: difference between active food and placebo food groups: 4.2
  Processing speed: difference between active food and placebo food groups: 4.1
  Psychomotor speed: difference between active food and placebo food groups: 7.1
  Reaction time: difference between active food and placebo food groups: 5.0
  Simple attention: difference between active food and placebo food groups: 0.9
  Social acuity: difference between active food and placebo food groups: −2.2
  Verbal memory: difference between active food and placebo food groups: 0.2
  Visual memory: difference between active food and placebo food groups: −1.4
  Working memory: difference between active food and placebo food groups: 3.0
Test A 200 mg, 4 w, mean ± SD
  Cognitive flexibility: 104.4 ± 9.8
  Executive function: 104.5 ± 9.8
  Non-verbal reasoning: 102.6 ± 9.1
  Reaction time: 99.3 ± 0.4
  Simple attention: 100.2 ± 10.5
  Social acuity: 93.2 ± 18.9
  Working memory: 108.5 ± 11.2
Test A 200 mg, 8 w
  Cognition flexibility: difference between active food and placebo food groups: 4.6
  Complex attention: difference between active food and placebo food groups: 1.3
  Composite memory: difference between active food and placebo food groups: −2.9
  Continuous attention: difference between active food and placebo food groups: 5.6
  Executive function: difference between active food and placebo food groups: 4.9
  Motor speed: difference between active food and placebo food groups: 3.9
  Non-verbal reasoning: difference between active food and placebo food groups: −2.2
  Processing speed: difference between active food and placebo food groups: 3.5
  Psychomotor speed: difference between active food and placebo food groups: 5.2
  Reaction time: difference between active food and placebo food groups: −0.6
  Simple attention: difference between active food and placebo food groups: −0.3
  Social acuity: difference between active food and placebo food groups: −0.3
  Verbal memory: difference between active food and placebo food groups: −6.3
  Visual memory: difference between active food and placebo food groups: 1.4
  Working memory: difference between active food and placebo food groups: 7.2
Test A 200 mg, 8 w, mean ± SD
  Cognitive flexibility: 108.2 ± 8.6
  Executive function: 108.5 ± 8.6
  Non-verbal reasoning: 104.9 ± 12.5
  Reaction time: 94.0 ± 21.9
  Simple attention: 99.2 ± 14.9
  Social acuity: 91.3 ± 20.8
  Working memory: 113.4 ± 9.7
Test A 200 mg, 12 w
  Cognition flexibility: difference between active food and placebo food groups: 1.4
  Complex attention: difference between active food and placebo food groups: 1.7
  Composite memory: difference between active food and placebo food groups: −5.0
  Continuous attention: difference between active food and placebo food groups: 3.7
  Executive function: difference between active food and placebo food groups: 1.4
  Motor speed: difference between active food and placebo food groups: 6.1
  Non-verbal reasoning: difference between active food and placebo food groups: 6.8
  Processing speed: difference between active food and placebo food groups: 3.1
  Psychomotor speed: difference between active food and placebo food groups: 6.4
  Reaction time: difference between active food and placebo food groups: 5.5
  Simple attention: difference between active food and placebo food groups: 5.5
  Social acuity: difference between active food and placebo food groups: −8.0
  Verbal memory: difference between active food and placebo food groups: −3.1
  Visual memory: difference between active food and placebo food groups: −4.6
  Working memory: difference between active food and placebo food groups: 4.2
Test A 200 mg, 12 w, mean ± SD
  Cognitive flexibility: 107.5 ± 7.3
  Continuous attention: 112.9 ± 8.2
  Reaction time: 100.7 ± 10.4
  Simple attention: 97.9 ± 17.0
  Social acuity: 89.0 ± 23.1
[1]
  Cognition flexibility: difference between active food and placebo food groups: 4.4
  Complex attention: difference between active food and placebo food groups: 3.4
  Composite memory: difference between active food and placebo food groups: 5.6
  Continuous attention: difference between active food and placebo food groups: 3.3
  Executive function: difference between active food and placebo food groups: 4.5
  Motor speed: difference between active food and placebo food groups: 6.7
  Non-verbal reasoning: difference between active food and placebo food groups: 3.7
  Processing speed: difference between active food and placebo food groups: 3.6
  Psychomotor speed: difference between active food and placebo food groups: 7.1
  Reaction time: difference between active food and placebo food groups: 4.5
  Simple attention: difference between active food and placebo food groups: 2.2
  Social acuity: difference between active food and placebo food groups: −6.4
  Verbal memory: difference between active food and placebo food groups: 4.6
  Visual memory: difference between active food and placebo food groups: 4.0
  Working memory: difference between active food and placebo food groups: 3.5
[2]
  Cognitive flexibility: 102.5 ± 9.4
  Complex attention: 105.6 ± 9.8
  Executive function: 102.8 ± 9.0
  Non-verbal reasoning: 102.4 ± 14.9
  Reaction time: 96.6 ± 14.5
  Simple attention: 97.9 ± 17.4
  Social acuity: 87.9 ± 17.9
[3]
  scores regarding continuous attention, GABA group compared to the placebo group: significant improvement
  scores regarding working memory, GABA group compared to the placebo group: significant improvement
Test A, after twelve weeks of ingestion
  scores regarding reasoning, GABA group compared to the placebo group: significant improvement
Test B 100 mg, 4 w
  Cognition flexibility: difference between active food and placebo food groups: −3.6
  Complex attention: difference between active food and placebo food groups: −4.0
  Composite memory: difference between active food and placebo food groups: 7.2
  Continuous attention: difference between active food and placebo food groups: −0.6
  Executive function: difference between active food and placebo food groups: −3.2
  Motor speed: difference between active food and placebo food groups: 6.9
  Non-verbal reasoning: difference between active food and placebo food groups: 0.5
  Processing speed: difference between active food and placebo food groups: 0.8
  Psychomotor speed: difference between active food and placebo food groups: 5.3
  Reaction time: difference between active food and placebo food groups: 0.8
  Simple attention: difference between active food and placebo food groups: −5.8
  Social acuity: difference between active food and placebo food groups: −4.4
  Verbal memory: difference between active food and placebo food groups: 9.1
  Visual memory: difference between active food and placebo food groups: 2.4
  Working memory: difference between active food and placebo food groups: 0.4
Test B 100 mg, 4 w, mean ± SD
  Cognitive flexibility: 105.8 ± 11.3
  Complex attention: 106.3 ± 12.9
  Continuous attention: 111.8 ± 7.2
  Reaction time: 97.8 ± 10.8
  Simple attention: 97.8 ± 25.2
  Social acuity: 90.5 ± 16.7
  Working memory: 110.4 ± 9.3
Test B 100 mg, 8 w
  Cognition flexibility: difference between active food and placebo food groups: −0.5
  Complex attention: difference between active food and placebo food groups: −0.4
  Composite memory: difference between active food and placebo food groups: 7.4
  Continuous attention: difference between active food and placebo food groups: −0.8
  Executive function: difference between active food and placebo food groups: −0.4
  Motor speed: difference between active food and placebo food groups: 7.3
  Non-verbal reasoning: difference between active food and placebo food groups: 0.5
  Processing speed: difference between active food and placebo food groups: 1.5
  Psychomotor speed: difference between active food and placebo food groups: 6.3
  Reaction time: difference between active food and placebo food groups: 1.4
  Simple attention: difference between active food and placebo food groups: 2.8
  Social acuity: difference between active food and placebo food groups: 6.1
  Verbal memory: difference between active food and placebo food groups: 8.8
  Visual memory: difference between active food and placebo food groups: 3.1
  Working memory: difference between active food and placebo food groups: −1.8
Test B 100 mg, 8 w, mean ± SD
  Complex attention: 109.6 ± 10.3
  Continuous attention: 110.2 ± 8.9
  Non-verbal reasoning: 106.2 ± 12.2
  Reaction time: 97.9 ± 10.0
  Simple attention: 101.3 ± 13.0
  Social acuity: 95.4 ± 17.0
  Working memory: 109.8 ± 9.5
Test B 100 mg, 12 w
  Cognition flexibility: difference between active food and placebo food groups: −2.3
  Complex attention: difference between active food and placebo food groups: −2.5
  Composite memory: difference between active food and placebo food groups: 5.5
  Continuous attention: difference between active food and placebo food groups: 0.0
  Executive function: difference between active food and placebo food groups: −2.4
  Motor speed: difference between active food and placebo food groups: 6.5
  Non-verbal reasoning: difference between active food and placebo food groups: 3.9
  Processing speed: difference between active food and placebo food groups: 2.4
  Psychomotor speed: difference between active food and placebo food groups: 5.4
  Reaction time: difference between active food and placebo food groups: −1.7
  Simple attention: difference between active food and placebo food groups: −6.5
  Social acuity: difference between active food and placebo food groups: 4.6
  Verbal memory: difference between active food and placebo food groups: 6.8
  Visual memory: difference between active food and placebo food groups: 2.1
  Working memory: difference between active food and placebo food groups: 0.9
Test B 100 mg, 12 w, mean ± SD
  Complex attention: 109.9 ± 10.1
  Continuous attention: 110.8 ± 13.8
  Motor speed: 108.3 ± 12.9
  Non-verbal reasoning: 107.5 ± 10.6
  Simple attention: 99.2 ± 21.3
  Social acuity: 97.2 ± 17.0
  Working memory: 112.2 ± 7.9
[4]
  Cognition flexibility: difference between active food and placebo food groups: 2.4
  Complex attention: difference between active food and placebo food groups: 3.0
  Composite memory: difference between active food and placebo food groups: 5.2
  Continuous attention: difference between active food and placebo food groups: 1.2
  Executive function: difference between active food and placebo food groups: 2.1
  Motor speed: difference between active food and placebo food groups: 6.4
  Non-verbal reasoning: difference between active food and placebo food groups: 3.1
  Processing speed: difference between active food and placebo food groups: 1.5
  Psychomotor speed: difference between active food and placebo food groups: 4.5
  Reaction time: difference between active food and placebo food groups: 1.9
  Simple attention: difference between active food and placebo food groups: 3.3
  Social acuity: difference between active food and placebo food groups: 0.8
  Verbal memory: difference between active food and placebo food groups: 6.4
  Visual memory: difference between active food and placebo food groups: 2.0
  Working memory: difference between active food and placebo food groups: 2.6
[5]
  Cognitive flexibility: 105.9 ± 10.0
  Continuous attention: 111.6 ± 6.9
  Executive function: 105.5 ± 9.9
  Non-verbal reasoning: 102.6 ± 14.1
  Reaction time: 98.1 ± 9.0
  Simple attention: 101.2 ± 14.9
  Social acuity: 92.6 ± 16.0
  Working memory: 110.5 ± 7.9
Test B, at least after eight weeks of ingestion
  scores regarding motor speed, GABA group compared to the placebo group: significant improvement
